# Measurements: US20230357307A1, “CLEAVABLE CYCLIC LOOP NUCLEOTIDES FOR NANOPORE SEQUENCING” (ILLUMINA, INC., priority 2022, published 2023)
# Test system: polymerase
# Experiment: polymerase incorporation of allyl dTTP (FIG. 7 gel)
# Format: biochemical
# Details: homopolymeric A template
# Description: A polymerase incorporated “allyl dTTP” and “ext allyl dTTP” to a template and primer combination, as indicated by the arrow in FIG. 7, for up to 10 successive incorporations. The reaction conditions as well as the definitions of “allyl dTTP” and “ext allyl dTTP” are given in the right panel of FIG. 7. Moreover, “A” and “B” are referring to the optically pure diastereomers arising from the C5′ allyl carbon center.
# Lanes 1 (starting from the left), 3, 5, 7, 9 and 11 were loaded with reactions run for an hour; and Lanes 2, 4, 6, 8, 10 and 12 were loaded with reactions run for 22 hours. Lanes 1 and 2 show: controls with natural dTTP without any arresting constructs (Note, bands above +10 are seen due to the use of a homopolymeric A template, a common observation). Lanes 3 and 4 show: one isomer of Allyl dTTP (“Allyl A dTTP”) is used, the isomer arise from the C-stereogenic center (marked with “+” in the structure shown on the right panel of FIG. 7). Up to +7 incorporation observed after 1 h. […] Lanes 5 and 6 show: one isomer of ext allyl dTTP (“Ext Allyl A dTTP”) is used. Up to +7 incorporation observed after 22h. Slower incorporation possibly due to increased sterics. Lanes 7 and 8 show: the other isomer of Allyl dTTP (“Allyl B dTTP”) is used. Up to +10 incorporation observed after 22h. Lanes 9 and 10 show: the other isomer of ext allyl dTTP (“Ext Allyl B dTTP”) is used. […]
structure (smiles),measurement,setting,value
Cc1cn([C@H]2C[C@H](O)[C@@H](COP(=O)(O)OP(=O)(O)OP(=O)(O)O)O2)c(=O)[nH]c1=O [dTTP],incorporation observed (primer +n),reactions run for 22 hours,above +10
same,incorporation observed (primer +n),reactions run for an hour,above +10
